pEC50: −log10 of the molar value. Values after ≈ are worked out from the molar mass of the structure shown.
Legend:
[1] = Metabolic stability in Sprague-Dawley rat liver microsomes assessed as half life at 10 uM preincubated for 5 mins followed by NADPH regenerating system measured upto 60 min by HPLC analysis; type: ADME, Microsome; conditions: time < 65 min
[2] = molecular target: T1, Ephrin type-B receptor 3 (Homo sapiens) (UniProt P54753); assay: Induction of stabilization of recombinant EPHB3 (unknown origin) assessed as change in melting temperature by differential scanning fluorimetry assay
T1 sequence (whole entry): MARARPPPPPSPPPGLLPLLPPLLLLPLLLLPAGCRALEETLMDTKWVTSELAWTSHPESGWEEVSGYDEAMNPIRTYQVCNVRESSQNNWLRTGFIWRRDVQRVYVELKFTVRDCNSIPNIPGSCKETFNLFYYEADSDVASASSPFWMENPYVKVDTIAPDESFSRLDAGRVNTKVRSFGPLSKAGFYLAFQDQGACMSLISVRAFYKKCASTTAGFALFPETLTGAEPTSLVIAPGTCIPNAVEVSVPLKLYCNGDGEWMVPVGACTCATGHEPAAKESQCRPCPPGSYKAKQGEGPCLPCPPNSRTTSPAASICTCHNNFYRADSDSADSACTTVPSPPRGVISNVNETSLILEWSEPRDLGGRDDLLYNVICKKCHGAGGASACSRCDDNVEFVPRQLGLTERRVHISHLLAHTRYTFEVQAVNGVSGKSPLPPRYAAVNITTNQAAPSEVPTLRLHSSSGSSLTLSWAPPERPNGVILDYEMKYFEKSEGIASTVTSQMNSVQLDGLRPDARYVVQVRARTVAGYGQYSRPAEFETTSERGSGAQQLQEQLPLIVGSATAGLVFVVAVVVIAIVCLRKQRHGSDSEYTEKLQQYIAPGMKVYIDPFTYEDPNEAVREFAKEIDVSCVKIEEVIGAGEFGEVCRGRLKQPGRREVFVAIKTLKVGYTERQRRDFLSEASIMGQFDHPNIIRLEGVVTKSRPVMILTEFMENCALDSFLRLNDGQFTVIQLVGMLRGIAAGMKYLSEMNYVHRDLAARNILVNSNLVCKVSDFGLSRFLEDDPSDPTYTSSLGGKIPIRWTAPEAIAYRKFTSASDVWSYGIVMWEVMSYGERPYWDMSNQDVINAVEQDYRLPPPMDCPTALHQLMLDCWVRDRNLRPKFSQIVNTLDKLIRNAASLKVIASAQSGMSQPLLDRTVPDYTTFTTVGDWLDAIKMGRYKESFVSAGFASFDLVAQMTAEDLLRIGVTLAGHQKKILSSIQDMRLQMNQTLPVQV

[3] = molecular target: Ephrin type-A receptor 7 (Homo sapiens) (UniProt Q15375); assay: Induction of stabilization of recombinant EPHA7 (unknown origin) assessed as change in melting temperature by differential scanning fluorimetry assay
[4] = molecular target: T2, Vascular endothelial growth factor receptor 1 (Homo sapiens, UniProt P17948); assay: Induction of stabilization of recombinant FLT1 (unknown origin) assessed as change in melting temperature by differential scanning fluorimetry assay
Ephrin type-A receptor 4 [5] = molecular target: T3, Ephrin type-A receptor 4 (Homo sapiens, UniProt P54764); assay: Induction of stabilization of recombinant EPHA4 (unknown origin) assessed as change in melting temperature by differential scanning fluorimetry assay
[6] = molecular target: Fibroblast growth factor receptor 2 (Homo sapiens) (UniProt P21802)
Description: Induction of stabilization of recombinant FGFR2 (unknown origin) assessed as change in melting temperature by differential scanning fluorimetry assay

[7] = molecular target: Ephrin type-A receptor 5 (Homo sapiens) (UniProt P54756)
Description: Induction of stabilization of recombinant EPHA5 (unknown origin) assessed as change in melting temperature by differential scanning fluorimetry assay

dengue virus type 2 = assay: Antiviral activity against DENV-2 New Guinea C infected in human Huh-7 cells assessed as reduction in virus induced cytopathic effect preincubated with cells for 1 hr followed by viral infection and measured after 45 to 48 hrs by luciferase assay; type: functional, organism-based; conditions: for EC90: time 45-48 hrs
[8] = molecular target: T4, Fibroblast growth factor receptor 1 (Homo sapiens, UniProt P11362)
Target sequence in this assay (P11362 22-822 limits assumed): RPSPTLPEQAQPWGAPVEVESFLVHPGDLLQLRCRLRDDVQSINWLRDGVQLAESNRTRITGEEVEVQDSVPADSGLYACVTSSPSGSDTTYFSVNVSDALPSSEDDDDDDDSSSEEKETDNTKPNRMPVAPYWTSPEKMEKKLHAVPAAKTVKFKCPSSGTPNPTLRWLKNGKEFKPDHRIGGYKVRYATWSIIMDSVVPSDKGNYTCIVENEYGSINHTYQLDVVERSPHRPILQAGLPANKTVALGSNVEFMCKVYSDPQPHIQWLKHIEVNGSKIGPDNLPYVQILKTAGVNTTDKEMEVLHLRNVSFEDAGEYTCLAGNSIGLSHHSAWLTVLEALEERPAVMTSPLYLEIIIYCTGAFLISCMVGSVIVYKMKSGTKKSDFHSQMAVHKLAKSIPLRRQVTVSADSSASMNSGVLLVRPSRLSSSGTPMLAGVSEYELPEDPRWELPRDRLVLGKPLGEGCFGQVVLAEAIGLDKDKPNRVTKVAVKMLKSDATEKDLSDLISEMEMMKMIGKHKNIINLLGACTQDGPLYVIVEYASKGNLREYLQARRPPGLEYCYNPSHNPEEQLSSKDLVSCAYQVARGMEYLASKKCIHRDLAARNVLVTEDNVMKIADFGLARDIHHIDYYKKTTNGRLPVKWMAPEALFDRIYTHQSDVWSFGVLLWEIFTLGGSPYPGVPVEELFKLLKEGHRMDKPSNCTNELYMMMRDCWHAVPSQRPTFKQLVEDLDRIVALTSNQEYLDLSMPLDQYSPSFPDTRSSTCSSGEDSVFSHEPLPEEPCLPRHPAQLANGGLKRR
Description: Induction of stabilization of recombinant FGFR1 (unknown origin) assessed as change in melting temperature by differential scanning fluorimetry assay

[9] = molecular target: T5, Ephrin type-B receptor 1 (Homo sapiens) (UniProt P54762); assay: Induction of stabilization of recombinant EPHB1 (unknown origin) assessed as change in melting temperature by differential scanning fluorimetry assay
T5 sequence (whole entry): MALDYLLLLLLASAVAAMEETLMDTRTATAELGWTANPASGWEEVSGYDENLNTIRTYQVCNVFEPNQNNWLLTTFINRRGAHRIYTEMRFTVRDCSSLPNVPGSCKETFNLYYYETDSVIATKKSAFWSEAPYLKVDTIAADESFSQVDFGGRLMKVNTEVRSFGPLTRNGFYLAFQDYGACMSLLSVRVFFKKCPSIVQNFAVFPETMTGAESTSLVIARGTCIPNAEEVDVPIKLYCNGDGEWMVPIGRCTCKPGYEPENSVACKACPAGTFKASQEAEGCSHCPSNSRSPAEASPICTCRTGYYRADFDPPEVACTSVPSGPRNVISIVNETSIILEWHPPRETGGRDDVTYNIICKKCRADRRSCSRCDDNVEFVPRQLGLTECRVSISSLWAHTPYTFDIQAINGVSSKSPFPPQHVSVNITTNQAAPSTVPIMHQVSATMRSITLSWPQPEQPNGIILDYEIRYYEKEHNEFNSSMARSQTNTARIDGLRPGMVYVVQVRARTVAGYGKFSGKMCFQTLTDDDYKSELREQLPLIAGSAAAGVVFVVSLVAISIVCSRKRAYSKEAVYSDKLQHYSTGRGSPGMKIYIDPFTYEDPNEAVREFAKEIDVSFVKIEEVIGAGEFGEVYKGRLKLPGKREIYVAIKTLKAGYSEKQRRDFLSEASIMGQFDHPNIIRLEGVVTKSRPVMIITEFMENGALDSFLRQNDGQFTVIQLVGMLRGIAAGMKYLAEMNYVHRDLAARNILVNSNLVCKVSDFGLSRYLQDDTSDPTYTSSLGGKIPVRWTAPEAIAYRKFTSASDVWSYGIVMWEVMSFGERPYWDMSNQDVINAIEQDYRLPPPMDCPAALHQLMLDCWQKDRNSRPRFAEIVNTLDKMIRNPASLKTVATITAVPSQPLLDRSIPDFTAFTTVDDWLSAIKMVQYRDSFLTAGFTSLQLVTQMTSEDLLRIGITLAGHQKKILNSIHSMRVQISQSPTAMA

Huh-7 = assay: Cytotoxicity against human Huh-7 cells assessed as reduction in cell viability by alamar blue reagent based analysis; type: functional
[10] = molecular target: T4, Fibroblast growth factor receptor 1; assay: Inhibition of full length FGFR1 (unknown origin) expressed in HEK293T cells using NanoBRET NanoGlo substrate incubated for 2 hrs in presence of K10 tracer by NanoBRET assay; type: cell-based
[11] = molecular target: T2, Vascular endothelial growth factor receptor 1; assay: Inhibition of full length FLT1 (unknown origin) expressed in HEK293T cells using NanoBRET NanoGlo substrate incubated for 2 hrs in presence of K9 tracer by NanoBRET assay; type: cell-based
[12] = molecular target: Tyrosine-protein kinase ABL1 (Homo sapiens, UniProt P00519); assay: Inhibition of full length ABL1 (unknown origin) expressed in HEK293T cells using NanoBRET NanoGlo substrate incubated for 2 hrs in presence of K4 tracer by NanoBRET assay; type: cell-based
Ephrin type-A receptor 4 [13] = molecular target: T3, Ephrin type-A receptor 4; assay: Inhibition of full length EPHA4 (unknown origin) expressed in HEK293T cells using NanoBRET NanoGlo substrate incubated for 2 hrs in presence of K4 tracer by NanoBRET assay; type: cell-based
[14] = Solubility of the compound measured after 24 hrs by HPLC/MS analysis; type: physicochemical
[15] = Metabolic stability in Sprague-Dawley rat liver microsomes assessed as parent compound remaining at 10 uM measured after 60 min by HPLC analysis; type: ADME, Microsome; conditions: read-out: Stability
Ephrin type-A receptor 2 [16] = molecular target: T6, Ephrin type-A receptor 2 (Homo sapiens, UniProt P29317)
Description: Induction of stabilization of recombinant EPHA2 (D596 to G900 residues) (unknown origin) expressed in Escherichia coli rosetta BL21(D3)-R3-pRARE2 competent cells assessed as change in melting temperature by differential scanning fluorimetry assay

Ephrin type-A receptor 2 [17] = molecular target: T6, Ephrin type-A receptor 2; remark: listed apart in the source
Description: Binding affinity to recombinant his tagged EPHA2 (D596 to G900 residues) (unknown origin) expressed in Escherichia coli rosetta BL21(D3)-R3-pRARE2 competent cells assessed as dissociation constant by surface plasmon resonance method

[18] = molecular target: T7, Cyclin-G-associated kinase (Homo sapiens) (UniProt O14976)
T7 sequence (whole entry): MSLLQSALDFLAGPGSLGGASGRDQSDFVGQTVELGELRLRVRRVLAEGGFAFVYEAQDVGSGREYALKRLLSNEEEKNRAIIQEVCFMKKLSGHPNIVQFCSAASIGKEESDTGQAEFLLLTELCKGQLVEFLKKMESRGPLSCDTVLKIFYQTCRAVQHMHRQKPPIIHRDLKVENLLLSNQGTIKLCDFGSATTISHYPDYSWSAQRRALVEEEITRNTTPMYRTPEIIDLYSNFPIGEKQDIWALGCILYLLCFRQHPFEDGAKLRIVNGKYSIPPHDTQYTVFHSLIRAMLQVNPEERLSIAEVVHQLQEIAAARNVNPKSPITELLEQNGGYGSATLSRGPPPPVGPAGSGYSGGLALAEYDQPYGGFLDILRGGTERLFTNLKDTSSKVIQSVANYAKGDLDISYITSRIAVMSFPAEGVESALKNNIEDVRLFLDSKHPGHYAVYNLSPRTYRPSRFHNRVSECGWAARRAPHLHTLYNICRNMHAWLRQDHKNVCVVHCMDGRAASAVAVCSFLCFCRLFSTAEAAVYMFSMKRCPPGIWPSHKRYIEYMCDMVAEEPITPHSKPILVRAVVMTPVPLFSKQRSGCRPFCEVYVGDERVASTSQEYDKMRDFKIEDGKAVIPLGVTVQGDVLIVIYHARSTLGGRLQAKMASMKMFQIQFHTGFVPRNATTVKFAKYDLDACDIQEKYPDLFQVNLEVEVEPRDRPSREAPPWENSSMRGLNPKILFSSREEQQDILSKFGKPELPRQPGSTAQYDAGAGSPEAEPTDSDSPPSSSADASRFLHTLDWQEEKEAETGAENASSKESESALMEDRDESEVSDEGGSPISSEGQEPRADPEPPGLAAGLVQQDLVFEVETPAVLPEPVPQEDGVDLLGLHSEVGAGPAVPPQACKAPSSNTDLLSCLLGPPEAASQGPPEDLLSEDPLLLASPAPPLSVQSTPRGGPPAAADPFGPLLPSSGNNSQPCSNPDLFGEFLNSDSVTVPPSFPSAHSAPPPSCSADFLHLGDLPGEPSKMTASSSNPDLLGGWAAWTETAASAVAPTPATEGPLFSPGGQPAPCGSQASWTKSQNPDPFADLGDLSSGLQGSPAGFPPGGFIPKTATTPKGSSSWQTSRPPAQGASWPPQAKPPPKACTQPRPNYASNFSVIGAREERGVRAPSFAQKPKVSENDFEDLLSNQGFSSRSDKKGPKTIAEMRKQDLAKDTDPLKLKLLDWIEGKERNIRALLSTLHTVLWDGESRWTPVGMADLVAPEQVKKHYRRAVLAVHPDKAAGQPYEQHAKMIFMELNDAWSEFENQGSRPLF
Description: Induction of stabilization of recombinant GAK (unknown origin) assessed as change in melting temperature by differential scanning fluorimetry assay

T6 sequence (P29317 whole entry): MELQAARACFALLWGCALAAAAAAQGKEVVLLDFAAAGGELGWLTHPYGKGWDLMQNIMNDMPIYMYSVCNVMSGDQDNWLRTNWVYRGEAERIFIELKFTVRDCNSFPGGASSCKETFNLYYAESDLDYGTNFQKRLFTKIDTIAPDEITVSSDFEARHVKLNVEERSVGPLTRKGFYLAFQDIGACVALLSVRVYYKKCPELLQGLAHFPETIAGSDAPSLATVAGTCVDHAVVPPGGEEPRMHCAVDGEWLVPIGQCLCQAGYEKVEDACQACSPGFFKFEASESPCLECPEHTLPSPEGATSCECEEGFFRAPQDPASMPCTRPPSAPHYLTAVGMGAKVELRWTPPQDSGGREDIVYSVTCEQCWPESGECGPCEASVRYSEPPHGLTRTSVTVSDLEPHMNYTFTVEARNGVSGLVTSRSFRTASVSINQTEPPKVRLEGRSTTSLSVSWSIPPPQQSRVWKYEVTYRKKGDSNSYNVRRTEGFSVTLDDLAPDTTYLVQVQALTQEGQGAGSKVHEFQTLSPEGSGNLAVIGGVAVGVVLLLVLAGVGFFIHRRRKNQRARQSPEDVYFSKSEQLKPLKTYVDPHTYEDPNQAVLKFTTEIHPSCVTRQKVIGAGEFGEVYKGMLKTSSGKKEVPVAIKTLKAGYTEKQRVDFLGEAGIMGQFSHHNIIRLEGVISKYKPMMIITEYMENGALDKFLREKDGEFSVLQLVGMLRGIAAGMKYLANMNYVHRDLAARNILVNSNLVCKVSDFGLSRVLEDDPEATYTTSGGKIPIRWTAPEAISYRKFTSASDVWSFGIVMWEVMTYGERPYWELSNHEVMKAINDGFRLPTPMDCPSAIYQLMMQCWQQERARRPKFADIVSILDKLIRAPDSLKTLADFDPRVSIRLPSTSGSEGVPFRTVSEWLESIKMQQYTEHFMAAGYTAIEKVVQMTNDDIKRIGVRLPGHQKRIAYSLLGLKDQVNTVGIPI
T3 sequence (P54764 whole entry): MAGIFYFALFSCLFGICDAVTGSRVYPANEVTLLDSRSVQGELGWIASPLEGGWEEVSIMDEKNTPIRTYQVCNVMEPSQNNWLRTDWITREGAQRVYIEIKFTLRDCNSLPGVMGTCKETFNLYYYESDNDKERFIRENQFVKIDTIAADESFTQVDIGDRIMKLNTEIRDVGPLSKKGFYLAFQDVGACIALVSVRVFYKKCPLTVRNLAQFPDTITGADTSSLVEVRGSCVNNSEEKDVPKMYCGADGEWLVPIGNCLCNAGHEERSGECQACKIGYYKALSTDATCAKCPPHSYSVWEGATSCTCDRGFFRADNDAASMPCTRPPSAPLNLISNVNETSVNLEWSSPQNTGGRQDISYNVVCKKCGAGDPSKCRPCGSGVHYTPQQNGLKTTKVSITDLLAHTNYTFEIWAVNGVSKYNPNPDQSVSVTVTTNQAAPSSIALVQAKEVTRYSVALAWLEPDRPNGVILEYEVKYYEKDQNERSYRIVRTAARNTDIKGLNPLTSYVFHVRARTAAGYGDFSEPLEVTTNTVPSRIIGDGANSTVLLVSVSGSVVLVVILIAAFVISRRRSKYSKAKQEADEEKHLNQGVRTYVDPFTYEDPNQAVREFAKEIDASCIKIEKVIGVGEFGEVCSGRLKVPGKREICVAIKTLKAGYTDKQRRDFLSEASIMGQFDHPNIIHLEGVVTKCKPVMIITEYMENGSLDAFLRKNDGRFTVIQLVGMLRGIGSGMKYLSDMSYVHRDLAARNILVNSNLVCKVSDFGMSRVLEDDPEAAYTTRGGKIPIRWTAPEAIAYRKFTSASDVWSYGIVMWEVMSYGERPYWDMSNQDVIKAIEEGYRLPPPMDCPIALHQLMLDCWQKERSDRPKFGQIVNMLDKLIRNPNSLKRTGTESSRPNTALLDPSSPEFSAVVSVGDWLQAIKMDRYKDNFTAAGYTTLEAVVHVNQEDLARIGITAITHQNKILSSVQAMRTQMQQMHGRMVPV
Sequence of Fibroblast growth factor receptor 2 (Homo sapiens) (P21802 22-821 limits assumed): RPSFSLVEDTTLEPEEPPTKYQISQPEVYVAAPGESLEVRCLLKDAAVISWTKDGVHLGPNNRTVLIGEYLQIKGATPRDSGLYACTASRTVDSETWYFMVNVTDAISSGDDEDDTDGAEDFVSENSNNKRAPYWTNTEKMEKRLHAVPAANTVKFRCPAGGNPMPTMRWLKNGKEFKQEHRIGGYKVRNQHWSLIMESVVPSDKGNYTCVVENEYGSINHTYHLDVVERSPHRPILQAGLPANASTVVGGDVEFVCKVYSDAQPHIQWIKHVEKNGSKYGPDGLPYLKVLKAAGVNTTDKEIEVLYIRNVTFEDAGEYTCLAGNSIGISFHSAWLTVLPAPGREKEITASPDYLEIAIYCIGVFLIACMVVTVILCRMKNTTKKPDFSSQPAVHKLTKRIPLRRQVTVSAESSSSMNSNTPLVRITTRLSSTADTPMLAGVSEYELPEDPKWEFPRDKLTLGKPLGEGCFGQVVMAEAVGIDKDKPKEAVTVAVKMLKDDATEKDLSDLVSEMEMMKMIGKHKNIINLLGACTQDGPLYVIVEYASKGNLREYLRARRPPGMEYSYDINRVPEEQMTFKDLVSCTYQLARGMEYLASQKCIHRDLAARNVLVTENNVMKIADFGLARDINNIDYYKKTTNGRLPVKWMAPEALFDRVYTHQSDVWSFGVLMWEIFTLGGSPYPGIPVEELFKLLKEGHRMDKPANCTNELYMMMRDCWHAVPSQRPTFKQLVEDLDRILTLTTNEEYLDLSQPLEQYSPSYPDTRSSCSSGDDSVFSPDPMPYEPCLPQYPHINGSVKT
T2 sequence (P17948 whole entry): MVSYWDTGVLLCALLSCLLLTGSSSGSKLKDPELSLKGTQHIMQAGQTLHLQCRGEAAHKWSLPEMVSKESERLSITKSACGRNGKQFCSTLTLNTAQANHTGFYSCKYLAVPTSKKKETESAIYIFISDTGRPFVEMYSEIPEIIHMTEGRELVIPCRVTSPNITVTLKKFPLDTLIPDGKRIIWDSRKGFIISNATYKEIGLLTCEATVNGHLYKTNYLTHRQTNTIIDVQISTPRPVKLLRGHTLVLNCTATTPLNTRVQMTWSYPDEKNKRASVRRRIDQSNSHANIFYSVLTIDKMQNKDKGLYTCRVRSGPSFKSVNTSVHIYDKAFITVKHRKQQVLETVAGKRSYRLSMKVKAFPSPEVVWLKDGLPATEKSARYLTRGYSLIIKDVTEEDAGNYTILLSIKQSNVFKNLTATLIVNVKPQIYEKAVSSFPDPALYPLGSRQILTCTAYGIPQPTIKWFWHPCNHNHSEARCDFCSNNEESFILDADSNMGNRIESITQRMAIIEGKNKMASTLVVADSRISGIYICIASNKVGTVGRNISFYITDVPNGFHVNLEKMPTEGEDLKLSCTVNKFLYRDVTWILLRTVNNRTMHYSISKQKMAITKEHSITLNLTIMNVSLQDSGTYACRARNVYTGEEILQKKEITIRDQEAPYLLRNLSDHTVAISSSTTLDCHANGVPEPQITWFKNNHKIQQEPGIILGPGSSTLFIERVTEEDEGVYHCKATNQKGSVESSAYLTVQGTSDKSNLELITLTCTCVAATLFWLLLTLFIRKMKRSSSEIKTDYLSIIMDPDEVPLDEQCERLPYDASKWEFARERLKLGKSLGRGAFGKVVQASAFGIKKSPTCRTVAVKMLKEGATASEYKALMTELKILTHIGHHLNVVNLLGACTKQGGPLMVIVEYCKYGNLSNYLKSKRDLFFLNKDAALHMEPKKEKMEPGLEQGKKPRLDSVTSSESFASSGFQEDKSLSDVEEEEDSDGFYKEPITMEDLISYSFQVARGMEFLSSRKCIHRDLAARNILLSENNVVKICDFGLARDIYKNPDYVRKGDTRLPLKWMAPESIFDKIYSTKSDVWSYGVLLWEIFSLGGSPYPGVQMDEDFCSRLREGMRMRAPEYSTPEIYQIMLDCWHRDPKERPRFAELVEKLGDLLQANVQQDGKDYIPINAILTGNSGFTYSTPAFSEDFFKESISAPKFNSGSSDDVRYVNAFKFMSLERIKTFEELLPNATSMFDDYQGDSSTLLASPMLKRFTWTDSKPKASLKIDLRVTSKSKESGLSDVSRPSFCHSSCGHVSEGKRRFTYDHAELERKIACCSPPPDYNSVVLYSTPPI

With `COc1cc(-c2cnc3nc2NCCCNS(=O)(=O)c2cccc(c2)N3)ccc1F` the half-life at 10 µM [1] was 6.6 h, the deltaTm [2] was 5.6 K and the deltaTm [3] was 0.3 K. For the same compound, the deltaTm [4] was 6.3 K, the deltaTm (Ephrin type-A receptor 4 [5]) was 3.6 K and the deltaTm [6] was 4.4 K. It also gave a deltaTm [7] of 5.4 K, a pEC50 (dengue virus type 2) of under 5.00 and an EC90 (dengue virus type 2) of over 10 µM. It also gave a deltaTm [8] of 3.3 K, a deltaTm [9] of 4.3 K and a CC50 (Huh-7) of over 10 µM.

For `COc1cc(-c2cnc3nc2NCCCNS(=O)(=O)c2cc(ccc2OC)N3)ccc1F`, the deltaTm [2] was 1.6 K, the deltaTm [3] was 1 K and the deltaTm [4] was 1.3 K. It also gave a deltaTm (Ephrin type-A receptor 4 [5]) of 4.4 K, a deltaTm [6] of 3.4 K and a deltaTm [7] of 4.7 K. It also gave a pEC50 (dengue virus type 2) of under 5.00, an EC90 (dengue virus type 2) of over 10 µM and a deltaTm [8] of 2 K. For the same compound, the deltaTm [9] was 3.1 K and the CC50 (Huh-7) was over 10 µM.

In the case of `O=C(Nc1ccccc1Cl)c1cnc2ccc(C3CCNCC3)cn12`, the pEC50 [10] was under 4.30, the pEC50 [11] was under 4.30 and the pEC50 (dengue virus type 2) was 5.19. It also gave an EC90 (dengue virus type 2) of over 10 µM, a pEC50 [12] of 4.31 and a CC50 (Huh-7) of over 10 µM. The pEC50 (Ephrin type-A receptor 4 [13]) was 7.32.

Compound `COCCOc1ccc2cc1S(=O)(=O)NCCCNc1nc(ncc1-c1ccc(F)c(OC)c1)N2` has a deltaTm [2] of 3.1 K, a deltaTm [3] of 1 K and a deltaTm [4] of 1.8 K. The deltaTm (Ephrin type-A receptor 4 [5]) was 4.5 K, the deltaTm [6] was 4.5 K and the deltaTm [7] was 5.4 K. The pEC50 (dengue virus type 2) was under 5.00, the EC90 (dengue virus type 2) was over 10 µM and the deltaTm [8] was 2.5 K. The deltaTm [9] was 2.6 K and the CC50 (Huh-7) was over 10 µM.

`COc1cc(-c2cnc3nc2NCCCNS(=O)(=O)c2cccc(c2)N3)ccc1Br` showed a solubility at 24 h [14] of 2.24 µg/mL (≈ 4.57 µM), a half-life at 10 µM [1] of 4.6 h and a deltaTm [2] of 4 K. For the same compound, the deltaTm [3] was 0.1 K, the deltaTm [4] was 2.6 K and the deltaTm (Ephrin type-A receptor 4 [5]) was 3.2 K. It also gave a remaining at 1 h, 10 µM [15] of 87%, a deltaTm [6] of 2.4 K and a deltaTm [7] of 5 K. For the same compound, the pEC50 (dengue virus type 2) was 5.28, the EC90 (dengue virus type 2) was 9.8 µM and the deltaTm [8] was 1.8 K. The deltaTm [9] was 2.8 K and the CC50 (Huh-7) was over 10 µM.

In the case of `CCNc1nc(Nc2cccc(S(=O)(=O)NC)c2)ncc1-c1ccc(F)c(OC)c1`, the deltaTm (Ephrin type-A receptor 2 [16]) was 4.2 K and the Kd (Ephrin type-A receptor 2 [17]) was “Not Active”.

`COc1cc(-c2cnc3nc2NCCCNS(=O)(=O)c2cccc(c2)N3)c(F)cc1Cl` showed a deltaTm [2] of 5.8 K, a deltaTm [3] of 0.4 K and a deltaTm [4] of 3 K. For the same compound, the deltaTm (Ephrin type-A receptor 4 [5]) was 4.7 K, the deltaTm [6] was 3.4 K and the deltaTm [7] was 6 K. It also gave a deltaTm [8] of 2.7 K, a deltaTm [18] of 9.3 K and a deltaTm [9] of 4.9 K. It also gave a deltaTm (Ephrin type-A receptor 2 [16]) of 9.8 K.
